# Experimental data from article PMC9981747, “A covalent BTK ternary complex compatible with targeted protein degradation” (Nature Communications, 2023).
# “And” between values parts separate entries of the source, which are not always exact repeats. Identical values can stand only once.
# Molecular target: T1, BTK^FL-F559A (Homo sapiens, UniProt Q06187+Q13490, F559A)
# T1 construct: we used a full-length BTK (aa1-659) with a C terminal Tobacco Etch Virus protease (TEV) site; expressed in transfected cells; host or cells: Expi293 (HEK293)
# Test: Expi293 dose-dependent degradation of BTK^FL-F559A
# Format: cell-based
# Settings: for BTK^FL-F559A blot signal normalized to DMSO: replicates
# Procedure: Gibco Expi293 cell line Transfection Kit (Cat.# A14524) was cultured according to the manufacturers conditions. Cells were grown at 37 °C with 5% CO2 to 4 × 10^6 cells/mL using an orbital shaker set to 95 RPM. Next cells were split to 2 × 10^6 cells/mL and transfected with plasmid DNA at a 1 µg/mL final concentration in Optimem (Gibco 31985070) using the Expifectamine 293 transfection reagent according to manufacturer’s conditions. After approximately 18 h, enhancers 1 and 2 (provided with kit). Viability was typically about 85%. When cIAP1^FL was transfected, it was detected via α-cIAP1 antibody there was typically some autoubiquitination detected, and thus often appeared as a laddered or smeared band via western blotting. When BTK^FL variants were transfected, they were detected using anti-BTK antibody (D3H5).
# For dose-dependent degradation assays, cells were plated in a 24-well format and placed on a separate orbital shaker set to 115 RPM. Each well was treated with prescribed compound concentrations in the same manner as with THP-1 cells, with the exception of using Expifectamine 293 growth medium in place of RPMI 1640 complete media. After approximately 18 h post-treatment cells were harvested, centrifuged at 100 x g at 4 °C, washed twice with ice-cold PBS, and resuspended in RIPA buffer supplemented with a Roche protease inhibitor cocktail (Cat. #11873580001), and benzonase nuclease (Millipore-Sigma Cat# 70664). Each sample was incubated on ice for 30 min with periodic vortexing and centrifuged at 15 Kxg for 20 min. Clarified lysate was harvested and quantified using a Pierce BCA Assay Kit (Cat. #23225), and 20 µg of the sample was loaded into a 4–15% Criterion TGX gel (Bio-Rad, 5678085) and transferred to a nitrocellulose membrane (Life Technologies Cat. #IB23001) using an iBlot 2 (Life Technologies Cat. #IB21001). Proteins were detected using an iBind system (Life Technologies SLF2020). For BTK^T474I and BTK^T474I/C481S we inferred ligand entry into cells via the autoubiquitination and dose-dependent degradation of cIAP1^FL,[58].
# Dose-dependent Degradation was analyzed using ImageJ (NIH, version 1.50i). Densiometric analysis was performed, normalized to DMSO signal, and analyzed using GraphPad Prism (Version 9.0.0 (121)). Non-linear fit one-phase decay analysis was used to obtain DC50 values. When we observed a hook effect, some points were excluded as part of the fit. In Supplementary Fig. 7B the complete curve was fit using GraphPad Prism non-linear regression bell-shaped curve where X is the concentration. However, using this method we were unable to obtain stable values for our DC50. SEM error was plotted for each point. When determining statistically significant differences, we used a two-sided student’s unpaired T-Test.
# T1 sequence (Q06187 whole entry F559A, the tested form may be a part): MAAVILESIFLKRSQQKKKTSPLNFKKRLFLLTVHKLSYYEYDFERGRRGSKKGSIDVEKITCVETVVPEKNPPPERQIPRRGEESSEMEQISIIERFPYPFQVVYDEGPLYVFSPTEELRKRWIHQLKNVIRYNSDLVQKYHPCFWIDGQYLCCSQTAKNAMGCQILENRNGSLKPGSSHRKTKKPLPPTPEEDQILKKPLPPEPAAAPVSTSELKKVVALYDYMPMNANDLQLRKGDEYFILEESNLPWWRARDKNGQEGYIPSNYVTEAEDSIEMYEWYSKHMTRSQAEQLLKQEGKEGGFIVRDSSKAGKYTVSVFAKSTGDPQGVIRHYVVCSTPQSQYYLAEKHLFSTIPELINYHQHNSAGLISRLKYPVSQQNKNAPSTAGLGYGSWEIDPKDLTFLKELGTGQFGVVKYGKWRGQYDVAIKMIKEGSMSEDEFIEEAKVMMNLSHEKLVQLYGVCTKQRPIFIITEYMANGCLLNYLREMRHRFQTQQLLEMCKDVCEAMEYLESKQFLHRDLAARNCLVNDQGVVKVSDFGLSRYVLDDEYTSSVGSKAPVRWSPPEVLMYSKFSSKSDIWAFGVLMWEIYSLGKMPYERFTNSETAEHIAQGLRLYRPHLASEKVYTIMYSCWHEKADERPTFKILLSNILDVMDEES
# T1 sequence (Q13490 whole entry, the tested form may be a part): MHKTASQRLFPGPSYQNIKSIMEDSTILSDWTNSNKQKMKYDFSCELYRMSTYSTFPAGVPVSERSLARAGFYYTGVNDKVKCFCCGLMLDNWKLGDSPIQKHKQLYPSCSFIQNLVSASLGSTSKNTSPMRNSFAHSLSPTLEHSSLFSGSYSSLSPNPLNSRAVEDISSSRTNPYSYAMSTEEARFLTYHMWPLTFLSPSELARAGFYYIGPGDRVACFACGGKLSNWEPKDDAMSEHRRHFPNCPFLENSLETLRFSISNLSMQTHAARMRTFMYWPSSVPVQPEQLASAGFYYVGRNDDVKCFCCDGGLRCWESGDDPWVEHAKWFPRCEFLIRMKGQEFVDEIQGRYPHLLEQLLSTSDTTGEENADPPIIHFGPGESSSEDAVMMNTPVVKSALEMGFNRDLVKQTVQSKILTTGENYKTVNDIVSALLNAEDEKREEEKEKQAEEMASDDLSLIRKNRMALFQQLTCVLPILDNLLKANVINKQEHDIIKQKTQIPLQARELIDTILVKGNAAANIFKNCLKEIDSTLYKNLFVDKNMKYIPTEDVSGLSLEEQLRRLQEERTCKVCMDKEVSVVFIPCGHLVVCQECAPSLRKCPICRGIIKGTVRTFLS
smiles,measurement,setting,value
CNC(C)C(=O)NC(C(=O)N1CC(NC(=O)COCCN2CCN(CC=CC(=O)N3CCCC(n4nc(-c5ccc(Oc6ccccc6)cc5)c5c(N)ncnc54)C3)CC2)CC1C(=O)NC1CCCc2ccccc21)C1CCCCC1 (centres unmarked) [BCCov],BTK^FL-F559A blot signal normalized to DMSO,0.00976562 uM,1.17 and 1.06 and 0.96
same,BTK^FL-F559A blot signal normalized to DMSO,0.0195312 uM,1.16 and 1.04 and 1.13
same,BTK^FL-F559A blot signal normalized to DMSO,0.0390625 uM,0.92 and 0.90 and 0.89
same,BTK^FL-F559A blot signal normalized to DMSO,0.078125 uM,0.58 (2×) and 0.71
same,BTK^FL-F559A blot signal normalized to DMSO,0.15625 uM,0.39 and 0.23 and 0.37
same,BTK^FL-F559A blot signal normalized to DMSO,0.3125 uM,0.25 and 0.12 and 0.28
same,BTK^FL-F559A blot signal normalized to DMSO,0.625 uM,0.23 and 0.10 and 0.24
same,BTK^FL-F559A blot signal normalized to DMSO,1.25 uM,0.22 and 0.0565 and 0.18
same,BTK^FL-F559A blot signal normalized to DMSO,2.5 uM,0.23 and 0.05 and 0.19
same,BTK^FL-F559A blot signal normalized to DMSO,5 uM,0.18 and 0.08 and 0.22
same,degradation of F559A mutant,Expi293,retains potent cellular degradation
